Laboratory results reported in US20140378408A1, “NUCLEOSIDE 5'-PHOSPHOROTHIOATE ANALOGUES AND USES THEREOF” (BAR-ILAN UNIVERSITY, an Israeli University, priority 2012, published 2014).
Where two headings read alike, the source gives them in different places.

Assays:
human NTPDase3 [1] = molecular target: T1, human NTPDase3 (Homo sapiens, UniProt O75355); assay: Hydrolysis by human NTPDase3; format: in vitro ADME; design: made in house; host or cells: COS-7 cells (transfected; protein extract); conditions: for Hydrolysis by NTPDase3: 100 μM, 1 h, activity with 100 μM ATP = 100%
T1 sequence (O75355 1-529): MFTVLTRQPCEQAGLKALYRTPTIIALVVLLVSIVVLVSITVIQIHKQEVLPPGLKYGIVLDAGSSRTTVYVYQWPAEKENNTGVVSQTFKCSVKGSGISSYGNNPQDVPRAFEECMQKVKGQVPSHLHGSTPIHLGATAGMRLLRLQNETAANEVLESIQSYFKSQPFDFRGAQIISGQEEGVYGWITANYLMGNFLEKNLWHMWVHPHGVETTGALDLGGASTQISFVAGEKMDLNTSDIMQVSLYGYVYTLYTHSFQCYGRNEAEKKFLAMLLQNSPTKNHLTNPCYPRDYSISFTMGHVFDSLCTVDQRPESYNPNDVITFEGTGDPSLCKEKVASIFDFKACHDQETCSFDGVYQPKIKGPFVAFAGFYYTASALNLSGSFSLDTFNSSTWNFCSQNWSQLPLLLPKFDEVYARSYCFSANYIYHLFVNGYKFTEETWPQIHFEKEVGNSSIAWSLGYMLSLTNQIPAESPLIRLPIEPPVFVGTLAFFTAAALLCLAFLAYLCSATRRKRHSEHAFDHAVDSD

human NTPDase3 [2] = molecular target: T1, human NTPDase3; assay: Inhibition of NTPDase3 activity; conditions: for effect on human NTPDase3 activity: Table 5, ATP and analogue 100 μM, 100% activity = ATP alone; for inhibition of the hydrolysis of ATP by NTPDase3: analogue and ATP 100 μM
human P2Y11-R = molecular target: T2, human P2Y11-R (Homo sapiens, UniProt Q96G91); assay: [Ca^2+]i response of 1321N1 astrocytoma cells expressing P2Y11-R GFP; format: cell-based
T2 construct: expressed in transfected cells; host or cells: 1321N1 astrocytoma cells
T2 sequence (Q96G91 1-374): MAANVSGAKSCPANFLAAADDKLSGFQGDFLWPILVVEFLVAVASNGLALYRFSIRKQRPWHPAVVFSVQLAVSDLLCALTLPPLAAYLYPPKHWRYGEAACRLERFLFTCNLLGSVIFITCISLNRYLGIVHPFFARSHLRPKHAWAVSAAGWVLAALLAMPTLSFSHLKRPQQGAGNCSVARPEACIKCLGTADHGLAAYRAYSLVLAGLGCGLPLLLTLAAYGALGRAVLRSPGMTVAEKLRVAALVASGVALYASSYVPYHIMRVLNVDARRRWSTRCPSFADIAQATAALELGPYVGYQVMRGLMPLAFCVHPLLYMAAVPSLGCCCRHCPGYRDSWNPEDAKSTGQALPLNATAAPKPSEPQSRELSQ

human NTPDase1 [3] = molecular target: T3, human NTPDase1 (Homo sapiens, UniProt P49961); assay: Inhibition of NTPDase1 activity; conditions: for effect on human NTPDase1 activity: Table 5, ATP and analogue 100 μM, 100% activity = ATP alone, read as inhibition; for inhibition of the hydrolysis of ATP by NTPDase1: analogue and ATP 100 μM
T3 sequence (P49961 1-510): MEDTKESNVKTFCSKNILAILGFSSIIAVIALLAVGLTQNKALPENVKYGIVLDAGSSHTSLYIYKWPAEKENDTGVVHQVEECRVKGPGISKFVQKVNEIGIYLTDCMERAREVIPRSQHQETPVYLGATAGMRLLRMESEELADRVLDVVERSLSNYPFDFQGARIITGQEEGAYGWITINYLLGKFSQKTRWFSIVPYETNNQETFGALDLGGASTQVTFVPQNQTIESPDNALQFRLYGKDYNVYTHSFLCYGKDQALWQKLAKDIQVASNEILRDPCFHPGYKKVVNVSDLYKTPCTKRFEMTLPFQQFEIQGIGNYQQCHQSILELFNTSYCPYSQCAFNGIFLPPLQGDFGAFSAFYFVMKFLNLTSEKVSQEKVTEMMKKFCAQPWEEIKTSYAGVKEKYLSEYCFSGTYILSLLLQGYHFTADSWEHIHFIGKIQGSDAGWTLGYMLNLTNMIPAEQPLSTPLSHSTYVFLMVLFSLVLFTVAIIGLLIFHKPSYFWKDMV

human NTPDase2 [4] = molecular target: T4, human NTPDase2 (Homo sapiens, UniProt Q9Y5L3); assay: Hydrolysis by human NTPDase2; format: in vitro ADME; conditions: for Hydrolysis by NTPDase2: 100 μM, 1 h, activity with 100 μM ATP = 100%
T4 construct: made in house; host or cells: COS-7 cells (transfected; protein extract)
T4 sequence (Q9Y5L3 1-495): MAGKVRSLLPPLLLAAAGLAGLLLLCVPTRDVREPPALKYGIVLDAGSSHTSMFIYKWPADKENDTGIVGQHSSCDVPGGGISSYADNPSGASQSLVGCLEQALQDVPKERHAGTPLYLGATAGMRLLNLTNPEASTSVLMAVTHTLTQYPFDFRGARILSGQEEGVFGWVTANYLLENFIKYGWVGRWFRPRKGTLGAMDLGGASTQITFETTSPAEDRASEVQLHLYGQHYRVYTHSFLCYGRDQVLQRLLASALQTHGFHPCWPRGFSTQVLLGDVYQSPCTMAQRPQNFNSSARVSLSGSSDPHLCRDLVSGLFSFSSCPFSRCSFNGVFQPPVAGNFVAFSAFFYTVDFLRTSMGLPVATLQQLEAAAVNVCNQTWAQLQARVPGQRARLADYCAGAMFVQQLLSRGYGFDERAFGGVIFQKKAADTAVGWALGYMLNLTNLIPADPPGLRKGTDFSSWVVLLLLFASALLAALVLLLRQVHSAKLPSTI

human NTPDase1 [5] = molecular target: T3, human NTPDase1; assay: Hydrolysis by human NTPDase1; format: in vitro ADME; design: made in house; host or cells: COS-7 cells (transfected; protein extract); conditions: for Hydrolysis by NTPDase1: 100 μM, 1 h, activity with 100 μM ATP = 100%
human NTPDase2 [6] = molecular target: T4, human NTPDase2; assay: Inhibition of NTPDase2 activity; format: biochemical; conditions: for effect on human NTPDase2 activity: Table 5, ATP and analogue 100 μM, 100% activity = ATP alone; for inhibition of the hydrolysis of ATP by NTPDase2: analogue and ATP 100 μM

Nc1ncnc2c1ncn2[C@@H]1O[C@H](COP(=O)(O)CP(=O)(O)OP(O)(O)=S)[C@@H](O)[C@H]1O [APCPP-γ-S, adenosine 5′-[Pγ-thio]-α,β-methylenetriphosphate]
Hydrolysis by NTPDase3 (human NTPDase3 [1]): 4.8 ± 0.2%
effect on human NTPDase3 activity (human NTPDase3 [2]): 26.8 ± 1.1%
EC50 (human P2Y11-R): > 10 µM
times more potent than ATP at the P2Y11 receptor (human P2Y11-R): 6.7 fold
EC50 (human P2Y11-R; agonist, read-out: EC50 at the P2Y11 receptor): 1 µM
effect on human NTPDase1 activity (human NTPDase1 [3]): 18.7 ± 0.8%
Hydrolysis by NTPDase2 (human NTPDase2 [4]): 4.7 ± 0.2%
Hydrolysis by NTPDase1 (human NTPDase1 [5]): 5.3 ± 0.2%
effect on human NTPDase2 activity (human NTPDase2 [6]): 15.4 ± 0.7%

Nc1ncnc2c1ncn2[C@@H]1O[C@H](COP(O)(=S)OP(=O)(O)C(Cl)(Cl)P(=O)(O)O)[C@@H](O)[C@H]1O (single isomer, unassigned) [APPCCl2P-α-S, adenosine 5′-[Pα-thio]-β,γ-(dichloromethylene)triphosphate]
EC50 (human P2Y11-R): > 10 µM

Nc1ncnc2c1ncn2[C@@H]1O[C@H](COP(O)(=S)OP(=O)(O)CP(=O)(O)O)[C@@H](O)[C@H]1O (single isomer, unassigned; isomer b) [APPCP-α-S (isomer B), adenosine 5′-[Pα-thio]-β,γ-methylenetriphosphate]
Hydrolysis by NTPDase3 (human NTPDase3 [1]; listed as APPCP-α-S B): 4.8 ± 0.2%
effect on human NTPDase3 activity (human NTPDase3 [2]; listed as APPCP-α-S B): 18.7 ± 0.8%
inhibition of the hydrolysis of ATP by NTPDase3 (human NTPDase3 [2]): did not interfere
times more potent than ATP at the P2Y11 receptor (human P2Y11-R): 7 fold
effect on human NTPDase1 activity (human NTPDase1 [3]; listed as APPCP-α-S B): 0.5 ± 0.02%
inhibition of the hydrolysis of ATP by NTPDase1 (human NTPDase1 [3]): did not interfere
Hydrolysis by NTPDase2 (human NTPDase2 [4]; listed as APPCP-α-S B): 5.5 ± 0.3%
Hydrolysis by NTPDase1 (human NTPDase1 [5]; listed as APPCP-α-S B): 5.4 ± 0.2%
effect on human NTPDase2 activity (human NTPDase2 [6]; listed as APPCP-α-S B): 9.9 ± 0.4%
inhibition of the hydrolysis of ATP by NTPDase2 (human NTPDase2 [6]): did not interfere

adenosine-5′-tetrathiobisphosphonate
inhibition of the hydrolysis of ATP by NTPDase1 (human NTPDase1 [3]): 54%
Relative hydrolysis by NTPDase2 (human NTPDase2 [4]): 1 ± 0.2 % ± SD of ADP or AP2A hydrolysis
Relative hydrolysis by NTPDase1 (human NTPDase1 [5]): 1 ± 0.2 % ± SD of ADP or AP2A hydrolysis
inhibition of the hydrolysis of ATP by NTPDase2 (human NTPDase2 [6]): 42%

Nc1ncnc2c1ncn2[C@@H]1O[C@H](COP(O)(=S)OP(=O)(O)C(Cl)(Cl)P(=O)(O)O)[C@@H](O)[C@H]1O (single isomer, unassigned; isomer a) [APPCCl2P-α-S (isomer A), adenosine 5′-[Pα-thio]-β,γ-(dichloromethylene)triphosphate]
Hydrolysis by NTPDase3 (human NTPDase3 [1]; listed as APPCCl2P-α-S A): 5.2 ± 0.2%
effect on human NTPDase3 activity (human NTPDase3 [2]; listed as APPCCl2P-α-S A): 21.8 ± 1.0%
inhibition of the hydrolysis of ATP by NTPDase3 (human NTPDase3 [2]): did not interfere
agonism at the P2Y11-receptor (human P2Y11-R): not an agonist
effect on human NTPDase1 activity (human NTPDase1 [3]; listed as APPCCl2P-α-S A): 0.5 ± 0.01%
inhibition of the hydrolysis of ATP by NTPDase1 (human NTPDase1 [3]): did not interfere
Hydrolysis by NTPDase2 (human NTPDase2 [4]; listed as APPCCl2P-α-S A): 5.2 ± 0.1%
Hydrolysis by NTPDase1 (human NTPDase1 [5]; listed as APPCCl2P-α-S A): 5.3 ± 0.2%
effect on human NTPDase2 activity (human NTPDase2 [6]; listed as APPCCl2P-α-S A): 11.2 ± 0.5%
inhibition of the hydrolysis of ATP by NTPDase2 (human NTPDase2 [6]): did not interfere

Nc1ncnc2c1ncn2[C@@H]1O[C@H](COP(O)(=S)OP(=O)(O)CP(=O)(O)O)[C@@H](O)[C@H]1O (single isomer, unassigned; isomer a) [APPCP-α-S (isomer A), adenosine 5′-[Pα-thio]-β,γ-methylenetriphosphate]
Hydrolysis by NTPDase3 (human NTPDase3 [1]; listed as APPCP-α-S A): 4.2%
effect on human NTPDase3 activity (human NTPDase3 [2]; listed as APPCP-α-S A): 40.2 ± 2.0%
inhibition of the hydrolysis of ATP by NTPDase3 (human NTPDase3 [2]): did not interfere
agonism at the P2Y11-receptor (human P2Y11-R): not an agonist
effect on human NTPDase1 activity (human NTPDase1 [3]; listed as APPCP-α-S A): 58.4 ± 2.1%
inhibition of the hydrolysis of ATP by NTPDase1 (human NTPDase1 [3]): did not interfere
Hydrolysis by NTPDase2 (human NTPDase2 [4]; listed as APPCP-α-S A): 4.7%
Hydrolysis by NTPDase1 (human NTPDase1 [5]; listed as APPCP-α-S A): 4.4%
effect on human NTPDase2 activity (human NTPDase2 [6]; listed as APPCP-α-S A): 16.3 ± 0.6%
inhibition of the hydrolysis of ATP by NTPDase2 (human NTPDase2 [6]): did not interfere

Nc1ncnc2c1ncn2[C@@H]1O[C@H](COP(=O)(O)OP(O)(O)=S)[C@@H](O)[C@H]1O [ADP-β-S, adenosine 5′-[β-thio]diphosphate, reference compound]
Relative hydrolysis by NTPDase3 (human NTPDase3 [1]): 2 ± 0.1 % ± SD of ADP or AP2A hydrolysis
inhibition of the hydrolysis of ATP by NTPDase3 (human NTPDase3 [2]): less than 50%
inhibition of the hydrolysis of ATP by NTPDase1 (human NTPDase1 [3]): less than 50%
inhibition of the hydrolysis of ATP by NTPDase2 (human NTPDase2 [6]): less than 50%

Nc1ncnc2c1ncn2[C@@H]1O[C@H](COP(O)(=S)OP(=O)(O)C(Cl)(Cl)P(=O)(O)O)[C@@H](O)[C@H]1O (single isomer, unassigned; isomer b) [APPCCl2P-α-S (isomer B), adenosine 5′-[Pα-thio]-β,γ-(dichloromethylene)triphosphate]
Hydrolysis by NTPDase3 (human NTPDase3 [1]; listed as APPCCl2P-α-S B): 5.4%
effect on human NTPDase3 activity (human NTPDase3 [2]; listed as APPCCl2P-α-S B): 24.0 ± 1.2%
inhibition of the hydrolysis of ATP by NTPDase3 (human NTPDase3 [2]): did not interfere
times more potent than ATP at the P2Y11 receptor (human P2Y11-R): 2 fold
effect on human NTPDase1 activity (human NTPDase1 [3]; listed as APPCCl2P-α-S B): 21.6 ± 1.0%
inhibition of the hydrolysis of ATP by NTPDase1 (human NTPDase1 [3]): did not interfere
Hydrolysis by NTPDase2 (human NTPDase2 [4]; listed as APPCCl2P-α-S B): 5.5%
Hydrolysis by NTPDase1 (human NTPDase1 [5]; listed as APPCCl2P-α-S B): 5.4%
effect on human NTPDase2 activity (human NTPDase2 [6]; listed as APPCCl2P-α-S B): 12.7 ± 0.5%
inhibition of the hydrolysis of ATP by NTPDase2 (human NTPDase2 [6]): did not interfere

di-adenosine-5′,5″-tetrathiobisphosphonate
Relative hydrolysis by NTPDase3 (human NTPDase3 [1]): 2.0 ± 0.1 % ± SD of ADP or AP2A hydrolysis
inhibition of the hydrolysis of ATP by NTPDase3 (human NTPDase3 [2]): 5-20%
inhibition of the hydrolysis of ATP by NTPDase1 (human NTPDase1 [3]): ~60%
inhibition of the hydrolysis of ATP by NTPDase2 (human NTPDase2 [6]): 5-20%
